Data as given in patent US8952157B2, “Apoptosis-inducing agents for the treatment of cancer and immune and autoimmune diseases” (AbbVie Inc., priority 2008, dated 2015).
pKi: −log10 of the molar value.

Target: GST-Bcl-2 (Homo sapiens (Human), UniProt P10415)
Assay: Time Resolved-Fluorescence Resonance Energy Transfer (TR-FRET) Bcl-2 binding assay
Details: not given
Procedure: Determination of the utility of compounds having Formula (I) as binders to and inhibitors of anti-apoptotic Bcl-2 proteins was performed using the Time Resolved-Fluorescence Resonance Energy Transfer (TR-FRET) Assay. Tb-anti-GST antibody was purchased from Invitrogen (Catalog No. PV4216).
(§1) Representative compounds were serially diluted in dimethyl sulfoxide (DMSO) starting at 50 μM (2× starting concentration; 10% DMSO) and 10 μL were transferred into a 384-well plate. The samples are then mixed on a shaker for 1 minute and incubated for an additional 3 hours at room temperature. For each assay, the probe/antibody and protein/probe/antibody were included on each assay plate as negative and positive controls, respectively. Fluorescence was measured on the Envision (Perkin Elmer) using a 340/35 nm excitation filter and 520/525 (F-Bak peptide) and 495/510 nm (Tb-labeled anti-Histidine antibody) emission filters.
as §1, with “The” for “Representative compounds were serially diluted in dimethyl sulfoxide (DMSO) starting at 50 μM (2× starting concentration; 10% DMSO) and 10 μL were transferred into a 384-well plate. The”, “were” for “are”
The inhibition constant (Ki) is the dissociation constant of an enzyme-inhibitor complex or a protein/small molecule complex, wherein the small molecule is inhibiting binding of one protein to another protein. So a large Ki value indicates a low binding affinity and a small Ki value indicates a high binding affinity.

Sequence of GST-Bcl-2 (P10415 whole entry): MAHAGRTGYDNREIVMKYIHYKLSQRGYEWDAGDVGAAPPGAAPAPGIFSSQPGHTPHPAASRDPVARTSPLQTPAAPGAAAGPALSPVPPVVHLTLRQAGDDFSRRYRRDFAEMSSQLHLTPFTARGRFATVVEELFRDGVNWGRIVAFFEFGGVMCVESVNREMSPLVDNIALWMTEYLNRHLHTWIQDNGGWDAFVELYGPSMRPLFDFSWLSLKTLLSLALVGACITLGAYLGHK

`CC1(C)CC(c2ccc(Cl)cc2)=C(CN2CCN(c3ccc(C(=O)NS(=O)(=O)c4ccc(N[C@H]5CC[C@H](N6CCOCC6)CC5)c([N+](=O)[O-])c4)c(Oc4cc5cc[nH]c5cc4Cl)c3)CC2)CO1` [Example 294, Trans-2-[(6-chloro-1H-indol-5-yl)oxy]-4-(4-{[4-(4-chlorophenyl)-6,6-dimethyl-5,6-dihydro-2H-pyran-3-yl]methyl}piperazin-1-yl)-N-({4-[(4-morpholin-4-ylcyclohexyl)amino]-3-nitrophenyl}sulfonyl)benzamide] and `CC1(C)CCC(CN2CCN(c3ccc(C(=O)NS(=O)(=O)c4ccc(N[C@H]5CC[C@H](N6CCOCC6)CC5)c([N+](=O)[O-])c4)c(Oc4cccc(Cl)c4)c3)CC2)=C(c2ccc(Cl)cc2)C1` [Example 205, Trans-2-(3-chlorophenoxy)-4-(4-{[2-(4-chlorophenyl)-4,4-dimethylcyclohex-1-en-1-yl]methyl}piperazin-1-yl)-N-({4-[(4-morpholin-4-ylcyclohexyl)amino]-3-nitrophenyl}sulfonyl)benzamide] are within 0.2 log units of each other in pKi: 9.90 for the first, 9.82 for the second.

Same assay, conditions: GST-Bcl-2 1 nM, F-Bak peptide probe 100 nM, Tb-anti-GST antibody 1 nM; Ki by Wang's equation

Going from `CC1(C)CCC(CN2CCN(c3ccc(C(=O)NS(=O)(=O)c4ccc(NCC5CCOCC5)c([N+](=O)[O-])c4)c(Oc4cnc(N)c(C#N)c4)c3)CC2)=C(c2ccc(Cl)cc2)C1` [Example 352, 2-[(6-amino-5-cyanopyridin-3-yl)oxy]-4-(4-{[2-(4-chlorophenyl)-4,4-dimethylcyclohex-1-en-1-yl]methyl}piperazin-1-yl)-N-({3-nitro-4-[(tetrahydro-2H-pyran-4-ylmethyl)amino]phenyl}sulfonyl)benzamide] to `CC1(C)CCC(CN2CCN(c3ccc(C(=O)NS(=O)(=O)c4ccc(NCC5CCOC5)c([N+](=O)[O-])c4)c(Oc4cnc(N)c(Cl)c4)c3)CC2)=C(c2ccc(Cl)cc2)C1` (centres unmarked) [Example 389, 2-[(6-amino-5-chloropyridin-3-yl)oxy]-4-(4-{[2-(4-chlorophenyl)-4,4-dimethylcyclohex-1-en-1-yl]methyl}piperazin-1-yl)-N-({3-nitro-4-[(tetrahydrofuran-3-ylmethyl)amino]phenyl}sulfonyl)benzamide], the pKi rises from 10.10 to over 11.00.

First: CCN(CC)C1CCC(Nc2ccc(S(=O)(=O)NC(=O)c3ccc(N4CCN(CC5=C(c6ccc(Cl)cc6)CC(C)(C)CC5)CC4)cc3Oc3cccc(Cl)c3)cc2[N+](=O)[O-])CC1 (centres unmarked) [Example 204, 2-(3-chlorophenoxy)-4-(4-{[2-(4-chlorophenyl)-4,4-dimethylcyclohex-1-en-1-yl]methyl}piperazin-1-yl)-N-[(4-{[4-(diethylamino)cyclohexyl]amino}-3-nitrophenyl)sulfonyl]benzamide]
Second: Cc1ccccc1Oc1cc(N2CCN(CC3=C(c4ccc(Cl)cc4)CC(C)(C)CC3)CC2)ccc1C(=O)NS(=O)(=O)c1ccc(NC2CCN(C)CC2)c([N+](=O)[O-])c1 [Example 181, 4-(4-{[2-(4-chlorophenyl)-4,4-dimethylcyclohex-1-en-1-yl]methyl}piperazin-1-yl)-2-(2-methylphenoxy)-N-({4-[(1-methylpiperidin-4-yl)amino]-3-nitrophenyl}sulfonyl)benzamide]
The pKi of the first is 0.20 log units higher: 10.12 for the first, 9.92 for the second. The first binds more tightly here.

Compared with `CC1(C)CCC(CN2CCN(c3ccc(C(=O)NS(=O)(=O)c4ccc(NCC5CCOCC5)c([N+](=O)[O-])c4)c(Oc4ccc5[nH]cc(Cl)c5c4)c3)CC2)=C(c2ccc(Cl)cc2)C1` [Example 265, 2-[(3-chloro-1H-indol-5-yl)oxy]-4-(4-{[2-(4-chlorophenyl)-4,4-dimethylcyclohex-1-en-1-yl]methyl}piperazin-1-yl)-N-({3-nitro-4-[(tetrahydro-2H-pyran-4-ylmethyl)amino]phenyl}sulfonyl)benzamide], `O=C(NS(=O)(=O)c1ccc(NCCCN2CCOCC2)c([N+](=O)[O-])c1)c1ccc(N2CCN(Cc3ccccc3-c3ccc(Cl)cc3)CC2)cc1Oc1cccc(CO)c1` [Example 9, 4-(4-((4′-chloro-1,1′-biphenyl-2-yl)methyl)piperazin-1-yl)-2-(3-(hydroxymethyl)phenoxy)-N-((4-((3-morpholin-4-ylpropyl)amino)-3-nitrophenyl)sulfonyl)benzamide] is 0.32 log units lower in pKi: 9.44 for the first, 9.12 for the second. The first binds more tightly here.
